Reference: patent US20200094031A1, “TREATMENT OF A DISEASE OF THE GASTROINTESTINAL TRACT WITH A CHST15 INHIBITOR” (Progenity, Inc., priority 2017, published 2020)
Read-outs that look alike come from different tables or passages of the source.

Experiments:
[1] = Tacrolimus concentration in gastrointestinal tissue, luminal content and rectal contents, and tissue/plasma ratios (Example 13); format: in vivo, Yorkshire-Cross farm swine; settings: female, Yorkshire-Cross, pig; for concentration at 12 hr: other: intra-cecal device; for concentration at 12 hr / concentration at 12 h: 12 hr post dose
Procedure: The primary objective of this study was to study the pharmacokinetics of oral versus intra-cecal administration of tacrolimus in normal Yorkshire-Cross farm swine.
This study compares the effects of administration of: a single intra-cecal administration of a device containing 0.8 mL sterile vehicle solution (80% alcohol, 20% castor oil (HCO-60)); a single oral dose of tacrolimus at 0.09 mg/kg (in sterile vehicle solution); and a single intra-cecal administration of a device containing either 0.02 mg/kg (in sterile vehicle solution), 0.04 mg/kg (in sterile vehicle solution), or 0.09 mg/kg (in sterile vehicle solution).
This study employed five groups of three female swine weighing approximately 45 to 50 kg at study start. Swine were randomly placed into animal rooms/pens as they are transferred from the delivery vehicle without regard to group. Group numbers were assigned to the rooms in order of room number. No further randomization procedure was employed.
Animals in Group 1 received intra-cecally a device containing a vehicle solution (80% alcohol, 20% HCO-60). Animals in Group 2 received orally a liquid formulation of tacrolimus at 0.09 mg/kg per animal. Animals in Group 3 received intra-cecally a device containing tacrolimus at 0.02 mg/kg per device. Animals in Group 4 received intra-cecally a device containing tacrolimus 0.04 mg/kg per device. Animals in Group 5 received intra-cecally a device containing tacrolimus 0.09 mg/kg per device.

[2] = Blood pharmacokinetics of oral vs intra-cecal tacrolimus (Example 13); parameters: species or system Yorkshire-Cross farm swine; settings: in vivo; for concentration at 12 hr: Trough (12 hr)
From the text: (§1) No further randomization procedure was employed.

[3] = Tissue, plasma, rectal sample and GI content pharmacokinetics of tacrolimus, oral vs intra-cecal ingestible device (Example 10); parameters: species or system Yorkshire-Cross farm swine; settings: in vivo
Procedure: The primary objective of this study was to compare the tissue, plasma, rectal sample, and GI content pharmacokinetics of tacrolimus through oral versus intra-cecal ingestible device delivery in normal Yorkshire-Cross farm swine.
as §1
Animals in Group 1 received an ingestible device containing 0.8 mL of vehicle solution (80% alcohol, 20% HCO-60). Animals in Group 2 received orally […] liquid formulation of tacrolimus at 4 mg/0.8 mL per animal (Prograf: 5 mg/mL). Animals in Group 3 received intra-cecally an ingestible device containing tacrolimus at 1 mg in 0.8 mL per ingestible device. Animals in Group 4 received intra-cecally an ingestible device containing tacrolimus at 2 mg in 0.8 mL per ingestible device. Animals in Group 5 received intra-cecally an ingestible device containing tacrolimus at 4 mg in 0.8 mL per ingestible device. To control for potential confounding effects of the surgery, all groups fast on Day −11 at least 24 hr before being subjected to anesthesia followed by surgical placements of a cecal port by a veterinary surgeon at Day −10. All animals were fasted for at least 12 hr prior to dosing on Day 1. Animals were dosed via either intra-cecal dosing (IC) or oral dosing (PO) at Day 1 (between 6-8 p.m.). All animals resumed feeding at approximately 4 hours after dose (11-12 p.m. after dosing).
Animals in Group 1 (Vehicle Control) were administered a single intra-cecal ingestible device containing 0.8 mL Vehicle solution (80% alcohol, 20% castor oil (HCO-60) on Day 1. On Day −10 the animals were anesthetized, and a veterinary surgeon surgically placed an intra-cecal port in each animal. On Day 1, each animal was placed into a sling then a single intra-cecal ingestible device containing 0.8 mL vehicle solution (80% alcohol, 20% castor oil (HCO-60)) is introduced by the veterinary surgeon into the cecum via the cecal port in each animal. Following ingestible device placement, the animals were removed from the slings and placed back into their pens with water. All animals resumed feeding at approximately 4 hours after dose. […] A total of 60 samples were collected.
Approximately 200˜400 mg of rectal content were collected, if available, with a fecal swab (Copan Diagnostics Nylon Flocked Dry Swabs, 502CS01). The fecal swab was pre-weighed and weighed after collection in the collection tube (Sterile Tube and Cap No Media, PFPM913S), and the sample weight was recorded. The fecal swab was broken via the breakpoint, and was stored in the collection tube, and immediately frozen at −70° C. […] Immediately following euthanasia, tissue was collected.
For tissue necropsy, small intestine fluid and cecal fluid were collected separately from all the animals into two separate square plastic bottles, and stored at −20° C. The length and diameter of the cecum and the colon was measured from one animal in each group and recorded for reference. Tissues were collected for pharmacokinetic analyses and include mesenteric lymph nodes, a Peyer's Patch, and five gastrointestinal sections, including cecum, proximal colon, transverse colon, distal colon, and rectum. All samples were weighed, and the tissue sample weights were recorded. In each of the five gastrointestinal sections, tissue samples were collected in three different areas where the mucosal surface was visible and not covered by luminal content by using an 8.0-mm punch biopsy tool. Around 3 grams of the total punched sample were collected into a pre-weighed 15-mL conical tube, and the tissue weight was recorded. Three mesenteric lymph nodes were collected from different areas and weighed. At least one Peyer's Patch was collected and weighed.
Luminal contents were collected for pharmacokinetic analyses from the surface of the tissue from each of five gastrointestinal sections: cecum, proximal colon, transverse colon, distal colon, and rectum (total of 75). […]

[4] = female, Yorkshire-Cross, pig, 0.02 mg/kg
[5] = female, Yorkshire-Cross, pig, 0.04 mg/kg
[6] = female, Yorkshire-Cross, pig, 0.09 mg/kg

Compound `C=CC[C@@H]1/C=C(\C)C[C@H](C)C[C@H](OC)[C@H]2O[C@@](O)(C(=O)C(=O)N3CCCC[C@H]3C(=O)O[C@H](/C(C)=C/[C@@H]3CC[C@@H](O)[C@H](OC)C3)[C@H](C)[C@@H](O)CC1=O)[C@H](C)C[C@@H]2OC` [tacrolimus] has a Kp at 12 h ([1]; cecum tissue, other: intra-cecal, 0.04 mg/kg, cecum, Group 4 IC (0.04 mg/kg), swine, read-out: Ratio Tissue (mean) (ng/g)/Trough(12 hr) (ng/ml)) of 26.7, a Kp at 12 h ([1]; cecum tissue, other: intra-cecal, 0.09 mg/kg, cecum, Group 5 IC (0.09 mg/kg), swine, read-out: Ratio Tissue (mean) (ng/g)/Trough(12 hr) (ng/ml)) of 17.8 and a Kp at 12 h ([1]; distal colon tissue, other: intra-cecal, 0.02 mg/kg, distal colon, Group 3 IC (0.02 mg/kg), swine, read-out: Ratio Tissue (mean) (ng/g)/Trough(12 hr) (ng/ml)) of 59.9. For the same compound, the Kp at 12 h ([1]; distal colon tissue, other: intra-cecal, 0.04 mg/kg, distal colon, Group 4 IC (0.04 mg/kg), swine, read-out: Ratio Tissue (mean) (ng/g)/Trough(12 hr) (ng/ml)) was 14.6, the Kp at 12 h ([1]; distal colon tissue, other: intra-cecal, 0.09 mg/kg, distal colon, Group 5 IC (0.09 mg/kg), swine, read-out: Ratio Tissue (mean) (ng/g)/Trough(12 hr) (ng/ml)) was 15.6 and the “Ratio Tissue (mean) (ng/g)/AUG(0-12 hr) (ng · hr/ml)” value ([1]; in vivo, po, 0.09 mg/kg, 12 h) was 0. The “Ratio Tissue (mean) (ng/g)/Trough(12 hr) (ng/ml)” value ([1]; in vivo, po, 0.09 mg/kg, 12 h) was 0, the Kp at 12 h ([1]; in vivo, po, 0.09 mg/kg, Ratio Tissue (mean) (ng/g)/AUG(0-12 hr) (ng · hr/ml)) was 0 and the Kp at 12 h ([1]; in vivo, po, 0.09 mg/kg, Ratio Tissue (mean) (ng/g)/Trough(12 hr) (ng/ml)) was 0. The concentration at 12 hr ([1]; distal colon tissue, Group 3 IC (0.02 mg/kg), swine) was 44.7 ng/g, the concentration at 12 hr ([1]; proximal colon tissue, Group 3 IC (0.02 mg/kg), swine) was 50.2 ng/g and the concentration at 12 hr ([1]; spiral colon tissue, Group 3 IC (0.02 mg/kg), swine) was 204 ng/g. For the same compound, the concentration at 12 hr ([1]; spiral colon tissue, Group 4 IC (0.04 mg/kg), swine) was 342 ng/g, the concentration at 12 hr ([1]; spiral colon tissue, Group 5 IC (0.09 mg/kg), swine) was 783 ng/g and the concentration at 12 hr ([1]; transverse colon tissue, Group 3 IC (0.02 mg/kg), swine) was 128 ng/g. It also gave a concentration at 12 hr ([1]; transverse colon tissue, Group 4 IC (0.04 mg/kg), swine) of 85.8 ng/g, a concentration at 12 hr ([1]; transverse colon tissue, Group 5 IC (0.09 mg/kg), swine) of 272 ng/g and a concentration at 12 h ([1]; other: intra-cecal, cecum tissue, Group 4 IC (0.04 mg/kg), swine) of 52.3 ng/g. It also gave a concentration at 12 h ([1]; other: intra-cecal, cecum tissue, Group 5 IC (0.09 mg/kg), swine) of 77.3 ng/g, a concentration at 12 h ([1]; other: intra-cecal, distal colon tissue, Group 4 IC (0.04 mg/kg), swine) of 28.7 ng/g and a concentration at 12 h ([1]; other: intra-cecal, distal colon tissue, Group 5 IC (0.09 mg/kg), swine) of 67.7 ng/g. For the same compound, the concentration at 12 h ([1]; other: intra-cecal, proximal colon tissue, Group 4 IC (0.04 mg/kg), swine) was 98.3 ng/g, the concentration at 12 h ([1]; other: intra-cecal, proximal colon tissue, Group 5 IC (0.09 mg/kg), swine) was 157 ng/g and the Kp at 12 h ([1]; proximal colon tissue, other: intra-cecal, 0.02 mg/kg, proximal colon, Group 3 IC (0.02 mg/kg), swine, read-out: Ratio Tissue (mean) (ng/g)/Trough(12 hr) (ng/ml)) was 67.3. For the same compound, the Kp at 12 h ([1]; proximal colon tissue, other: intra-cecal, 0.04 mg/kg, proximal colon, Group 4 IC (0.04 mg/kg), swine, read-out: Ratio Tissue (mean) (ng/g)/Trough(12 hr) (ng/ml)) was 50.1, the Kp at 12 h ([1]; proximal colon tissue, other: intra-cecal, 0.09 mg/kg, proximal colon, Group 5 IC (0.09 mg/kg), swine, read-out: Ratio Tissue (mean) (ng/g)/Trough(12 hr) (ng/ml)) was 36.1 and the Kp at 12 h ([1]; spiral colon tissue, other: intra-cecal, 0.02 mg/kg, spiral colon, Group 3 IC (0.02 mg/kg), swine, read-out: Ratio Tissue (mean) (ng/g)/Trough(12 hr) (ng/ml)) was 273. For the same compound, the Kp at 12 h ([1]; spiral colon tissue, other: intra-cecal, 0.04 mg/kg, spiral colon, Group 4 IC (0.04 mg/kg), swine, read-out: Ratio Tissue (mean) (ng/g)/Trough(12 hr) (ng/ml)) was 175, the Kp at 12 h ([1]; spiral colon tissue, other: intra-cecal, 0.09 mg/kg, spiral colon, Group 5 IC (0.09 mg/kg), swine, read-out: Ratio Tissue (mean) (ng/g)/Trough(12 hr) (ng/ml)) was 180 and the Kp at 12 h ([1]; transverse colon tissue, other: intra-cecal, 0.02 mg/kg, transverse colon, Group 3 IC (0.02 mg/kg), swine, read-out: Ratio Tissue (mean) (ng/g)/Trough(12 hr) (ng/ml)) was 172. It also gave a Kp at 12 h ([1]; transverse colon tissue, other: intra-cecal, 0.04 mg/kg, transverse colon, Group 4 IC (0.04 mg/kg), swine, read-out: Ratio Tissue (mean) (ng/g)/Trough(12 hr) (ng/ml)) of 43.8, a Kp at 12 h ([1]; transverse colon tissue, other: intra-cecal, 0.09 mg/kg, transverse colon, Group 5 IC (0.09 mg/kg), swine, read-out: Ratio Tissue (mean) (ng/g)/Trough(12 hr) (ng/ml)) of 62.5 and an AUC(0-t) [2, 4] of 15.3 ± 2.36 ng·h/mL. It also gave a Cmax [2, 4] of 2.39 ± 0.57 ng/mL, a concentration at 12 hr [2, 4] of 0.746 ± 0.038 ng/mL and an AUC(0-t) [2, 5] of 51.4 ± 4.04 ng·h/mL. The Cmax [2, 5] was 9.2 ± 3.3 ng/mL, the concentration at 12 hr [2, 5] was 1.96 ± 0.491 ng/mL and the AUC(0-t) [2, 6] was 130 ± 7.83 ng·h/mL. It also gave a Cmax [2, 6] of 21.8 ± 4.73 ng/mL, a concentration at 12 hr [2, 6] of 4.35 ± 0.561 ng/mL and a concentration at 12 hr ([2]; female, Yorkshire-Cross, pig, po, 0.09 mg/kg) of 0.568 ± 0.291 ng/mL. For the same compound, the concentration at 12 h ([2]; female, Yorkshire-Cross, pig, po, 0.09 mg/kg, Trough level (12 hr)) was 0.568 ng/mL, the “mean concentration and AUC0-12 hours of tacrolimus in the blood” value ([2]; po, 0.09 mg/kg) was “higher” and the “exposure AUC” value [3] was < 2000-12 ng·h/mL. The “luminal content (spiral, transverse, and distal colon) concentrations” value [3] was “Significantly higher”, the “mean concentration of tacrolimus in the cecum tissue and the proximate colon tissue” value [3] was “higher” and the “tissue (spiral and transverse colon) concentrations” value [3] was “Significantly higher”. The “level of tacrolimus in tissue” value ([3]; po) was “No measurable level” and the rectal content concentration ([3]; po) was “no detectable level”.
